Measurements published in ChEMBL document CHEMBL6083261, “Structure-guided design and photochemical synthesis of new carbamo(dithioperoxo)thioates with improved potencies to SARS-CoV-2 3CLpro” (Bioorg Med Chem, 2024).

Assays:
[1] = target: T1, Replicase polyprotein 1ab (Severe acute respiratory syndrome coronavirus 2, UniProt P0DTD1); assay: (§1) Inhibition of SARS-CoV-2 N/C terminal 6his tagged 3CL protease extracted from Escherichia coli BL21(DE3) using CA-AVLQSGFR-Lys(Dnp)-Lys-NH2 as fluorescent substrate preincubated for 1 hr followed by substrate addition and measured after 20 mins by FRET analysis
[2] = target: T1, Replicase polyprotein 1ab; assay: Inhibition of SARS-CoV-2 PL protease
[3] = target: T1, Replicase polyprotein 1ab; assay: Inhibition of SARS-CoV-2 RdRp
Vero C1008 = assay: Cytotoxicity against African green monkey Vero E6 cells at 1 mM incubated for 24 hrs by CCK-8 method; type: toxicity, cell-based; conditions: chlorocebus sabaeus, vero c1008, 24 h, 1000 µM
[4] = target: Replicase polyprotein 1ab (Severe acute respiratory syndrome coronavirus 2) (UniProt P0DTD1); assay: as §1, with “10 mins” for “1 hr”, “every 10 sec for 10” for “after 20”, “mins in presence of DTT” for “mins”, “analysis relative to control” for “analysis”; parameters: concentration or dose not given beside the values; conditions: time 20.0 min
[5] = target: Replicase polyprotein 1ab (Severe acute respiratory syndrome coronavirus 2) (UniProt P0DTD1); assay: Inhibition of SARS-CoV-2 N/C terminal 6his tagged 3CL protease extracted from Escherichia coli BL21(DE3) using CA-AVLQSGFR-Lys(Dnp)-Lys-NH2 as fluorescent substrate preincubated for 1 hr followed by substrate addition and measured after 20 mins by FRET analysis relative to control; parameters: concentration or dose not given beside the values; conditions: time 80.0 min

| SMILES | IC50 [1] [µM] | IC50 [2] [µM] | IC50 [3] [µM] | Activity (Vero C1008) | inhibition [4] [%] | inhibition [5] [%] |
| --- | --- | --- | --- | --- | --- | --- |
| OC1CCN(C(=S)SSC(=S)N2CCC(O)CC2)CC1 | 0.92 | 0.58 | 83.1 | Toxic | 60 |  |
| OC1CCN(C(=S)SSCc2ccccc2)CC1 | 0.25 | 0.33 | 21.4 |  | 60 | > 95 |
| O=[N+]([O-])c1ccc(SSC(=S)N2CCC(O)CC2)cc1 | 0.24 | 0.32 | 45.6 | Toxic | 60 | > 95 |
| COC(=O)C1CCCN1C(=S)SSc1ccccc1 (stereo not given) | 0.54 | 0.39 | 57.6 |  |  |  |
| COC(=O)CCSSC(=S)N1CCC(O)CC1 | 0.47 | > 100 | > 100 | Toxic |  | > 95 |
| COc1ccc(SSC(=S)N2CCC(O)CC2)cc1 | 0.23 | 0.15 | 8.52 | Toxic | 60 | > 95 |
| S=C(SSc1ccccc1)N1CCCCC1 | 0.64 | 2.5 | > 100 |  |  |  |
| S=C(SSc1ccccc1)N1CCCC1 | 0.4 | 0.22 | 12 |  |  |  |
| Oc1ccc(SSC(=S)N2CCC(O)CC2)cc1 | 0.3 | 7.71 | 97.8 | Toxic | 60 | > 95 |
| S=C(SSc1ccccc1)N1CCOCC1 | 0.66 | 1.73 | > 100 |  |  |  |
| OC1CCN(C(=S)SSc2ccccc2)CC1 | 0.35 | > 100 | > 100 | Toxic | 60 | > 95 |
| S=C(SSC(=S)N1CCOCC1)N1CCOCC1 | 1.22 | 0.39 | 53.6 |  |  |  |
| OC1CCN(C(=S)SSc2ccc(C(F)(F)F)cc2)CC1 | 0.14 | 0.04 | 15.9 | Toxic | 60 | > 95 |
| OC1CCN(C(=S)SSc2ccc(F)cc2)CC1 | 0.19 | 0.1 | 9.77 | Toxic | 60 | > 95 |
| CCN(CC)C(=S)SSc1ccccc1 | 1070 | > 100 | > 100 |  |  |  |
| S=C(SSC(=S)N1CCCC1)N1CCCC1 [BIS(PYRROLIDINYLTHIOCARBONYL)DISULFIDE] | 1.34 | 0.06 | 8.92 |  |  |  |
| S=C(SSC(=S)N1CCCCC1)N1CCCCC1 [BIS(PIPERIDINYLTHIOCARBONYL)DISULFIDE] | 1.48 | 0.07 | 10.2 |  |  |  |
